The test system of test [1] is HCV RNA replicon in cell line ET (luc-ubi-neo/ET), human Huh7 hepatoma. The experiment in a line: Replicon luciferase assay, Example 26. It is filed as cell-based. The following applies: Hepatitis C virus, Huh-7, assay of Example 26, 72 hr; for EC50: read-out: Inhibition, Replicon, EC50 value; for EC90: read-out: Inhibition, Replicon, EC90 value. Here is the method: The compounds were assayed to evaluate the antiviral activity and cytotoxicity of compounds using replicon-derived luciferase activity. This assay used the cell line ET (luc-ubi-neo/ET), which is a human Huh7 hepatoma cell line that contains an HCV RNA replicon with a stable luciferase (Luc) reporter and cell culture-adaptive mutations. The ET cell line was grown in a 5% CO2 incubator at 37° C. in Dulbecco's modified essential media (DMEM) supplemented with 2 mM L-glutamine, nonessential amino acids, 100 U of penicillin/ml, 100 μg of streptomycin/mL, and 10% fetal bovine serum. G418 (Geneticin; Invitrogen) was added at a final concentration of 400 ug//mL.
All cell culture reagents were obtained from Invitrogen (Carlsbad). Cells were trypsinized (1% trypsin:EDTA) and plated out at 5×10^3 cells/well in white 96-well assay plates (Costar) dedicated to cell number (cytotoxicity) or antiviral activity assessments. Test compounds were added at six 3-fold concentrations each and the assay was run in DMEM, 5% FBS, 1% pen-strep, 1% glutamine, 1% non essential amino acid. Human interferon alpha-2b (PBL Biolabs, New Brunswick, N.J.) was included in each run as a positive control compound. Cells were processed 72 hr post test compound addition when the cells were still subconfluent. Antiviral activity was measured by analyzing replicon-derived luciferase activity using the Steady-Glo Luciferase Assay System (Promega, Madison, Wis.) according to manufacturer's instruction. The number of cells in each well was determined by Cell Titer Blue Assay (Promega). Compound profile was derived by calculating applicable EC50 (effective concentration inhibiting virus replication by 50%), EC90 (effective concentration inhibiting virus replication by 90%), IC50 (concentration decreasing cell viability by 50%) and SI50 (selective index: […]) values.

Test [2] addresses T1, HCV NS3/4A 1b protease R155K (Hepatitis C virus genotype 1b, UniProt Q9WMX2, R1181K).
T1 construct: 10× stocks of NS3/4A protease enzyme from Bioenza (Mountain View, Calif.); purchased Bioenza (Mountain View, Calif.)
The experiment in a line: HCV protease FRET assay (IC50_APP), Example 16. The test is classed as biochemical. The following applies: reaction started immediately after enzyme addition, read-out: Inhibition (apparent IC50, IC50_APP), HCV R155K. The method, then: (§1) The following protocol was used to generate “apparent” IC50 (IC50 APP) values as depicted in Table 6, below. […] 5 μL of each enzyme were added to Corning (#3575) 384-well, black, microtiter plates (Corning, N.Y.) after spotting a 0.5 μL volume of 50% DMSO and serially diluted compounds prepared in 50% DMSO. Protease reactions were immediately started after enzyme addition with the addition of 45 μL of the FRET substrate and monitored for 60-90 minutes at λex485/λem520 in a Synergy^4 plate reader from BioTek (Winooski, Vt.). At the conclusion of each assay, progress curves from each well were examined for linear reaction kinetics and fit statistics (R^2, 95% confidence intervals, absolute sum of squares).
(§2) The compound numbers correspond to the compound numbers in Table 3. […] ;

Test [3] has as its target T2, HCV NS3/4A 1b protease D168A (Hepatitis C virus genotype 1b, UniProt Q9WMX2, D1194A).
T2 construct: 10× stocks of NS3/4A protease enzyme from Bioenza (Mountain View, Calif.); purchased Bioenza (Mountain View, Calif.)
The test is described as follows: HCV protease FRET assay (IC50_APP), Example 16. The test is classed as biochemical. The method, then: as §1, §2

Test [4] has as its target T3, HCV NS3/4A 1b protease wild type (Hepatitis C virus genotype 1b, UniProt Q9WMX2).
T3 construct: 10× stocks of NS3/4A protease enzyme from Bioenza (Mountain View, Calif.); purchased Bioenza (Mountain View, Calif.)
The experiment in a line: HCV protease FRET assay (IC50_APP), Example 16. It is filed as biochemical. Here is the method:
as §1, §2

Regarding `C=C[C@@H]1C[C@]1(NC(=O)[C@@H]1CC(OC(=O)N2Cc3cccc(F)c3C2)CN1C(=O)[C@H](CCC(=O)C#CC(C)(C)C)NC(=O)OC(C)(C)C)C(=O)NS(=O)(=O)C1CC1` (some centres unmarked) [Compound I-29], the EC50 (commonly the midpoint of the concentration-response curve) in test [1] lay within 10 to 100 nM. Besides, the IC50 in test [2], in test [3] and in test [4] was less than 10 nM in each case.

As to `CC[C@@H]1C[C@]1(NC(=O)[C@@H]1CC(OC(=O)N2Cc3cccc(F)c3C2)CN1C(=O)[C@H](CCC(=O)C=C(C)C)NC(=O)OC(C)(C)C)C(=O)NS(=O)(=O)C1CC1` (some centres unmarked) [Compound I-33], the figures for the IC50 in test [2], in test [3] and in test [4] were 100 to 1000 nM, 1000 to 10000 nM and less than 10 nM, respectively.

As for `C=CC(=O)N1CCC/C=C\[C@@H]2C[C@@]2(C(=O)NS(=O)(=O)C2CC2)NC(=O)[C@@H]2CC(OC(=O)N3Cc4cccc(F)c4C3)CN2C(=O)[C@@H](NC(=O)OC(C)(C)C)C1` (stereo partly drawn) [Compound I-35, (1aR,3aS,5R,9S,16aS,Z)-11-acryloyl-9-(tert-butoxycarbonylamino)-1a-(cyclopropylsulfonylcarbamoyl)-3,8-dioxo-1,1a,2,3,3a,4,5,6,8,9,10,11,12,13,14,16a-hexadecahydrocyclopropa[n]pyrrolo[2,1-c][1,4,8]triazacyclopentadecin-5-yl-4-fluoroisoindoline-2-carboxylate], the EC50 in test [1] lay within 100 to 1000 nM. The EC90 (commonly the concentration needed for an effect of 90%) in test [1] lay in the range of 100 to 1000 nM. Besides, the IC50 (usually the concentration at which inhibition is half-maximal) in test [2] is 10 to 100 nM; in test [3], 10 to 100 nM; in test [4] it was less than 10 nM.

As for `C=CC(=O)N1CC/C=C\[C@@H]2C[C@@]2(C(=O)NS(=O)(=O)C2CC2)NC(=O)[C@@H]2CC(OC(=O)N3Cc4cccc(F)c4C3)CN2C(=O)[C@@H](NC(=O)OC(C)(C)C)CC1` (some centres unmarked) [Compound I-36], the EC50 in test [1] was in the range of 100 to 1000 nM. Moreover, the EC90 in test [1] is 100 to 1000 nM. Also, the IC50 in test [2], in test [3] and in test [4] was less than 10 nM in each case.

On to `C=CC(=O)N1C/C=C\[C@@H]2C[C@@]2(C(=O)NS(=O)(=O)C2CC2)NC(=O)[C@@H]2CC(OC(=O)N3Cc4cccc(F)c4C3)CN2C(=O)[C@@H](NC(=O)OC(C)(C)C)CCC1` (some centres unmarked) [Compound I-37], for which, in test [1], the EC50 fell in the range of 100 to 1000 nM. In addition, in test [1], the EC90 was 1000 to 10000 nM. Moreover, the IC50 is 10 to 100 nM in test [2], 10 to 100 nM in test [3] and less than 10 nM in test [4].

Consider `C/C=C(\C)C(=O)CC[C@H](NC(=O)OC(C)(C)C)C(=O)N1CC(OC(=O)N2Cc3cccc(F)c3C2)C[C@H]1C(=O)N[C@]1(C(=O)NS(=O)(=O)C2CC2)C[C@H]1CC` (some centres unmarked) [Compound I-39], for which the IC50 is 10 to 100 nM in test [2], 100 to 1000 nM in test [3] and less than 10 nM in test [4].

Turning to `C=CC(=O)NC[C@@H]1NC(=O)OCC(C)(C)CC/C=C/c2cccc3c2CN(C3)C(=O)O[C@@H]2C[C@@H](C(=O)N[C@]3(C(=O)NS(=O)(=O)C4CC4)C[C@H]3C=C)N(C2)C1=O` [Compound I-40], the figures for the IC50 in test [2], in test [3] and in test [4] were less than 10 nM, 10 to 100 nM and less than 10 nM, respectively.

Take `C=CC(=O)NC[C@@H]1NC(=O)OCC(C)(C)CCCCc2cccc3c2CN(C3)C(=O)O[C@@H]2C[C@@H](C(=O)N[C@]3(C(=O)NS(=O)(=O)C4CC4)C[C@H]3C=C)N(C2)C1=O` [Compound I-42]: the values for the IC50 in test [2], in test [3] and in test [4] were 10 to 100 nM, 10 to 100 nM and less than 10 nM, respectively.

As for `CCCCC(NC(=O)[C@@H]1C[C@@H](OC(=O)N2Cc3cccc(F)c3C2)CN1C(=O)[C@H](CCC(=O)C=C(C)C)NC(=O)OC(C)(C)C)C(=O)NS(=O)(=O)C1CC1` (stereo partly drawn) [Compound I-44, (3R,5S)-1-((S)-2-(tert-butoxycarbonylamino)-7-methyl-5-oxooct-6-enoyl)-5-(1-(cyclopropanesulfonamido)-1-oxohexan-2-ylcarbamoyl)pyrrolidin-3-yl 4-fluoroisoindoline-2-carboxylate], the IC50 in test [2] is 1000 to 10000 nM; in test [3], 1000 to 10000 nM; in test [4], less than 10 nM.

Turning to `CC(C)(C)OC(=O)N[C@H]1CN(S(=O)(=O)c2ccccc2[N+](=O)[O-])CCC/C=C\[C@@H]2C[C@@]2(C(=O)NS(=O)(=O)C2CC2)NC(=O)[C@@H]2CC(OC(=O)N3Cc4cccc(F)c4C3)CN2C1=O` (some centres unmarked) [Compound I-45], the EC50 in test [1] lay in the range of 10 to 100 nM. In test [1], the EC90 fell in the range of 100 to 1000 nM. Besides, the IC50 in test [2], in test [3] and in test [4] was less than 10 nM throughout.

Consider `C=CC(=O)N1CC(C(NC(C)=O)C(=O)N2CC(OC(=O)N3Cc4cccc(F)c4C3)C[C@H]2C(=O)N[C@]2(C(=O)NS(=O)(=O)C3CC3)C[C@H]2C=C)C1` (some centres unmarked) [Compound I-46], for which the EC50 in test [1] fell in the range of 1000 to 10000 nM. Further, the EC90 in test [1] is 1000 to 10000 nM. Further, the concentration for half-maximal inhibition (IC50) is less than 10 nM in test [2], 10 to 100 nM in test [3] and less than 10 nM in test [4].

As to `CC(C)(C)OC(=O)N[C@H]1CN(C(=O)CCl)CCC/C=C\[C@@H]2C[C@@]2(C(=O)N(C(=O)CCl)S(=O)(=O)C2CC2)NC(=O)[C@@H]2CC(OC(=O)N3Cc4cccc(F)c4C3)CN2C1=O` (some centres unmarked) [Compound I-48], the figures for the IC50 in test [2], in test [3] and in test [4] were 100 to 1000 nM, 100 to 1000 nM and 10 to 100 nM, respectively.

With `C=CC(=O)N(C)CC(NC(=O)C12CCC(C(=O)OC)(CC1)CC2)C(=O)N1CC(OC(=O)N2Cc3cccc(F)c3C2)C[C@H]1C(=O)N[C@]1(C(=O)NS(=O)(=O)C2CC2)C[C@H]1C=C` (some centres unmarked) [Compound I-52], in test [1], the EC50 is 1000 to 10000 nM and the EC90 is 1000 to 10000 nM. In addition, the IC50 in test [3] was in the range of 1000 to 10000 nM. Moreover, the IC50 in test [4] was 10 to 100 nM.

With `CC[C@@H]1C[C@]1(NC(=O)[C@@H]1C[C@@H](OC(=O)N2Cc3cccc(F)c3C2)CN1C(=O)[C@H](CC(=O)C=C(C)C)NC(=O)OC(C)(C)C)C(=O)NS(=O)(=O)C1CC1` [Compound I-60], the IC50 was 100 to 1000 nM in test [2] and less than 10 nM in test [4].

As to `CC(C)(C)OC(=O)N[C@H]1COC(=O)/C=C/C=C\[C@@H]2C[C@@]2(C(=O)NS(=O)(=O)C2CC2)NC(=O)[C@@H]2C[C@@H](OC(=O)N3Cc4cccc(F)c4C3)CN2C1=O` [Compound I-65], the values for the IC50 in test [2], in test [3] and in test [4] were 10 to 100 nM, 100 to 1000 nM and less than 10 nM, respectively.

Take `C/C=C/C(=O)OC1CC/C=C\[C@@H]2C[C@@]2(C(=O)NS(=O)(=O)C2CC2)NC(=O)[C@@H]2C[C@@H](OC(=O)N3Cc4cccc(F)c4C3)CN2C(=O)[C@@H](NC(=O)OC(C)(C)C)CC1` (some centres unmarked) [Compound I-66]: the IC50 in test [2], in test [3] and in test [4] was less than 10 nM in each case.

As for `C=C[C@@H]1C[C@]1(NC(=O)[C@@H]1C[C@@H](OC(=O)N2Cc3cccc(F)c3C2)CN1C(=O)[C@H](COC(=O)/C=C/C=C/C)NC(=O)OC(C)(C)C)C(=O)NS(=O)(=O)C1CC1` [Compound I-67], the values for the IC50 in test [2], in test [3] and in test [4] were 100 to 1000 nM, 100 to 1000 nM and less than 10 nM, respectively.

As to `C=C[C@@H]1C[C@]1(NC(=O)[C@@H]1CC(OC(=O)N2Cc3cccc(F)c3C2)CN1C(=O)[C@H](CC(=O)/C(C)=C/C)NC(=O)OC(C)(C)C)C(=O)NS(=O)(=O)C1CC1` (some centres unmarked) [Compound I-70], the results for the IC50 in test [2], in test [3] and in test [4] were 100 to 1000 nM, 100 to 1000 nM and less than 10 nM, respectively.

Turning to `C=C[C@@H]1C[C@]1(NC(=O)[C@@H]1CC(OC(=O)N2Cc3cccc(F)c3C2)CN1C(=O)[C@H](CC/C=C/C(=O)OC)NC(=O)OC(C)(C)C)C(=O)NS(=O)(=O)C1CC1` (some centres unmarked) [Compound I-72], the IC50 in test [2] was 10 to 100 nM; in test [3], 100 to 1000 nM; in test [4] it was less than 10 nM.

The values are drawn from patent US8293705B2, “HCV protease inhibitors and uses thereof” (Avila Therapeutics, Inc., priority 2007, dated 2012).
